# Test results as given in patent publication US5208344A, “Naphthalenepropionic acid derivatives as anti-inflammatory/antiallergic agents” (American Home Products Corporation, priority 1991, dated 1993).
# What was measured:
# 5-lipoxygenase = target: T1, 5-lipoxygenase (Rattus norvegicus, UniProt P12527); test: inhibition of 5-HETE synthesis by rat glycogen elicited polymorphonuclear leukocytes; assay type: cell-based; details: 10 μM; rat PMN; negative = potentiation of 5-HETE synthesis; read-out: % Inhibition of 5-LO (as 5-HETE)
# T1 construct: Peritoneal PMN are obtained from female Wistar rats (150-250 g); endogenous in cells; host or cells: rat glycogen-elicited peritoneal polymorphonuclear leukocytes, intact
# T1 sequence (P12527 1-673): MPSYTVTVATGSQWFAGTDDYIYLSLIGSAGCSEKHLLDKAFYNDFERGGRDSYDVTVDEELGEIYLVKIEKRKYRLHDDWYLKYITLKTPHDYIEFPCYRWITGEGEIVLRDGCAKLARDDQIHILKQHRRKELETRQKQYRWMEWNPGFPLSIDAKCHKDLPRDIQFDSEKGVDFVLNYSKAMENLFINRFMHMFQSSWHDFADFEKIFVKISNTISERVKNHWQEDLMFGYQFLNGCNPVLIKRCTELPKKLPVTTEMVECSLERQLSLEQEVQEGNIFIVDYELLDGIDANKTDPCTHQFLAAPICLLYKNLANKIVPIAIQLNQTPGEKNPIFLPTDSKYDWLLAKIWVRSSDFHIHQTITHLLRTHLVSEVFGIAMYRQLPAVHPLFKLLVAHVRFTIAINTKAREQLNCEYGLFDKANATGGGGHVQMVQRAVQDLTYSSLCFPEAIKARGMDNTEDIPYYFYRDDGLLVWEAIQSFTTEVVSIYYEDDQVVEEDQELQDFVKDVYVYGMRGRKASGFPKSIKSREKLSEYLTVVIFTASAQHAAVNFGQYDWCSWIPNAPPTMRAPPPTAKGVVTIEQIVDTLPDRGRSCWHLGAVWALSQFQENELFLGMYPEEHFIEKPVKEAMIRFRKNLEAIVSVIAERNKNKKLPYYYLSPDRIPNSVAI
# Outline: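 Peritoneal PMN from female Wistar rats given i.p. glycogen 24 h earlier were preincubated with compound for 10 min at 37° C (2×10^7 cells/ml, 10 mM L-cysteine). They were then stimulated 10 min with 10 μM A23187 plus 0.5 μM [14C]arachidonic acid. 5-HETE was separated by TLC and quantified by scintillation.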
# cyclooxygenase = test: inhibition of synthesis of cyclooxygenase products TxB2 and PGE2 (rat polymorphonuclear leukocytes); assay type: cell-based; details: 10 μM, rat PMN; for % Inhibition of CO (as PGE2): negative = potentiation of PGE2 synthesis
# Outline: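 Glycogen-elicited peritoneal PMN from female Wistar rats, 2×10^7 cells/ml in HBSS with Ca^++, Mg^++ and 10 mM L-cysteine, preincubated with compound 10 min at 37° C. Stimulated 10 min with A23187 (10 μM) plus 0.5 μM [14C] arachidonic acid; TxB2 and PGE2 quantified by TLC, autoradiography and scintillation counting.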
# carrageenan paw edema = test: rat carrageenan paw edema assay; assay type: in vivo; details: 1 hour prior to carrageenan, rat
# Protocol: The compounds of the invention are further tested in the rat carrageenan paw edema assay to determine their ability to inhibit the acute inflammatory response.
# 140-180 gm male Sprague-Dawley rats, in groups of 6 animals are injected subcutaneously in the right paw with 0.1 ml of 1% carrageenan at zero time. Mercury plethysmographic readings (ml) of the paw are made at zero time and 3 hours later. Test compounds are suspended or dissolved in 0.5% methylcellulose and given perorally 1 hour prior to carrageenan administration.
# The increase in paw volume (edema in ml.) produced by the carrageenan is measured. […] Unpaired Student's t-test is used to determine statistical significance.
# LTD4 = target: T2, LTD4 (Cavia porcellus, UniProt Q2NNR5); test: inhibition of LTD4-induced bronchospasm in guinea pigs; assay type: in vivo; details: 25 mg/kg intraduodenally, 10 minutes before LTD4; guinea pig
# T2 construct: isolated guinea pig trachea; from tissue; host or cells: guinea pig tracheal rings
# T2 sequence (Q2NNR5 1-340): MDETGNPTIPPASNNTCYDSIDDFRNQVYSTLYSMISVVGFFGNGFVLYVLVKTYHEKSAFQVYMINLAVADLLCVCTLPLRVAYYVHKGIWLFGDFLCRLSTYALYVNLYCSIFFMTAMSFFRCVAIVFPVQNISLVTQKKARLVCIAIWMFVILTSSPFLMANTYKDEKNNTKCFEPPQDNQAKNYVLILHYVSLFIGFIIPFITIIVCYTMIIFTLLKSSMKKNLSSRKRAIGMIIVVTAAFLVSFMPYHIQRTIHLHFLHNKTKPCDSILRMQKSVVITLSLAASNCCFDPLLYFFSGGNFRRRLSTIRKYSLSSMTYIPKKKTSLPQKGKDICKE
# Protocol: The assay of this Example measures the in vivo ability of the compounds of the invention to inhibit the bronchospasm induced in guinea pigs by the exogenously administered leukotrienes C4 and/or D4.
# Male Hartley strain guinea pigs (350-600 g) are anesthetized with pentobarbital sodium (50 mg/kg, i.p.). The jugular vein is cannulated for injection of drugs and the carotid artery for monitoring blood pressure. The trachea is cannulated for artificial ventilation by a miniature Starling pump and for indirect measurement of respiratory volume changes. The animals are then pretreated with succinylcholine (2 mg/kg i.v.) and indomethacin (10 mg/kg i.v.) in trizma 8.3 buffer, 9 minutes prior to leukotriene challenge. Submaximal bronchoconstrictor responses are established in control animals by varying the dose-levels of leukotriene. Intravenous dose-levels for LTC4 range from 0.4 to 0.6 μg/kg and for LTD4 the range is from 0.3 to 0.5 μg/kg. The aerosol bronchoprovocation dose for LTC4 is generated from 1.6 μM solution and for LTD4 from a 2.0 μM solution.
# Test drugs (dissolved in a solvent such as propylene glycol, polyethylene glycol 400 or saline) are administered either intraduodenally, by aerosol or intragastrically at 2 or 10 minutes before induction of bronchospasm by administration of either LTC4 or LTD4 at the predetermined dose-levels. Aerosols of soluble drugs or leukotrienes are produced in-line for 10 seconds only by actuation of an ultrasonic nebulizer (Monaghan). Aerosolized drug dosage is expressed in terms of solution concentration and by a fixed aerosol exposure time (approximately 10 seconds). Control animals receive solvent (2 ml/kg i.d. or appropriate aerosol) in place of drug.
# Respiratory volume changes are determined by a calibrated piston whose travel is recorded, via a linear transducer, on a Beckman Dynograph recorder. Maximal bronchoconstrictor volume is determined by clamping off the trachea at the end of the experiment. Overflow volumes at 1,3 and 5 minutes are obtained from the recorded charts.
# Area under the volume overflow curve (AUC) is estimated, using the overflow values at 1,3 and 5 minutes, and expressed as a percentage of the maximal overflow AUC (equation 1): [formula] Drug effects are reported as percent inhibition of % max AUC values obtained from appropriate control animals (equation 2): [formula]
# Student's t-test for unpaired data is used to determine statistical signifiance (p<0.05). IC50 values can also be determined by inverse prediction from linear regression liens through points between 10 and 90% inhibition.
# [1] = tested on: acute gastroirritation induced by naproxen; test: cytoprotective activity against NSAID (naproxen)-induced acute gastroirritation in rats; assay type: in vivo, rat; details: drug 100 mg/kg peroral 1 hour before naproxen 25 mg/kg
# From the text: The assay of Example 44 is also used to measure the cytoprotective activity of the compounds against acute gastroirritation induced by a nonsteroidal anti-inflammatory drug (NSAID).
# [2] = tested on: inflammatory mediator release; test: reverse passive Arthus pleurisy assay, inflammatory mediator release; assay type: in vivo, rat; details: rat
# Protocol: (§1) The compounds of the invention are further tested in the reverse passive Arthus pleurisy assay to evaluate their effectiveness in inflammatory mediator release and/or the fluid and cellular phases of an inflammatory response.
# A reverse passive Arthus reaction is induced in the pleural cavity of male Lewis rats (150-200 g; fasted overnight prior to use) by the intravenous administration of bovine serum albumin (BSA; 4 mg/0.2 ml) followed 30 minutes later by the injection of rabbit anti-BSA (1 mg/0.2 ml; lyophilized IgG fraction; Organon Teknika, West Chester, PA) into the right pleural space under halothane anesthesia. […] Animals are sacrificed at either the time of peak eicosanoid production (i.e. 5 minutes after anti-BSA for immunoreactive TxB2, 10 minutes for immunoreactive LTB4, 20 minutes for immunoreactive LTC4) or at the time of peak neutrophil infiltration (4 hours after anti-BSA) by CO2 inhalation. The pleural cavity is then exposed, the fluid exudate removed by gentle vacuum aspiration and the volume of exudate is recorded. For the determination of cellular infiltration, the pleural cavity is rinsed with 3 ml of 0.1% EDTA in sterile saline, and the recovered wash is pooled with the exudate. Cell number is determined on a model ZBI Coulter counter. For determination of eicosanoid production, undiluted pleural exudate is microfuged and the supernatant is extracted with ethanol (8-10 times volume). Extracts are either stored at -20° C., or are evaporated to dryness under a stream of N2 and reconstituted in radioimmunoassay (RIA) buffer.
# Eicosanoids are quantitated by RIA according to the procedure specified by the RIA kit manufacturer (Advanced Magnetics, Cambridge, MA). Briefly, 100 μl of ^3 H-labeled eicosanoid and 100 μl of specific antibody are sequentially added to 100 μl of extracted pleural exudate in BGG-phosphate buffer which contains 0.01 M phosphate, 0.1% bovine gamma globulin and 0.1% sodium azide at pH 7.0. Antibody-bound eicosanoid is separated form unbound eicosanoid by the addition of 750 μl of dextran (0.4%)-coated charcoal (0.4% Norit A) containing 0.1% sodium azide. The mixture is centrifuged at 2000 RPM at 5° C. for 15 minutes to pellet the charcoal and adsorbed unbound eicosanoid. Antibody-bound labeled eicosanoid is quantitated by counting in a liquid scintillation counter, and is correlated to concentration by a standard curve.
# (§2) Inflammatory cells are expressed as 10^6 cells/ml, pleural exudate is expressed as ml of fluid, and the amount of eicosanoids in the pleural cavity is expressed as ng/ml of exudate. Mean±S.E.M. is determined for each group. Percent inhibition (% I) of cell number, exudate volume and eicosanoid production is calculated for vehicle-treated control groups, and the responses in drug-treated rats are then expressed as the mean $ I of control.
# pleural inflammation = test: reverse passive Arthus pleurisy assay, pleural inflammation; assay type: in vivo; details: rat
# Protocol: as §1
# A reverse passive Arthus reaction is induced in the pleural cavity of male Lewis rats (150-200 g; fasted overnight prior to use) by the intravenous administration of bovine serum albumin (BSA; 4 mg/0.2 ml) followed 30 minutes later by the injection of rabbit anti-BSA (1 mg/0.2 ml; lyophilized IgG fraction; Organon Teknika, West Chester, PA) into the right pleural space under halothane anesthesia. Drugs or vehicle (0.5% Tween-80) control are administered orally in a volume of 1 ml/100 g body weight at 1 hour prior to the anti-BSA. Animals are sacrificed at either the time of peak eicosanoid production (i.e. 5 minutes after anti-BSA for immunoreactive TxB2, 10 minutes for immunoreactive LTB4, 20 minutes for immunoreactive LTC4) or at the time of peak neutrophil infiltration (4 hours after anti-BSA) by CO2 inhalation. The pleural cavity is then exposed, the fluid exudate removed by gentle vacuum aspiration and the volume of exudate is recorded. For the determination of cellular infiltration, the pleural cavity is rinsed with 3 ml of 0.1% EDTA in sterile saline, and the recovered wash is pooled with the exudate. Cell number is determined on a model ZBI Coulter counter. For determination of eicosanoid production, undiluted pleural exudate is microfuged and the supernatant is extracted with ethanol (8-10 times volume). Extracts are either stored at -20° C., or are evaporated to dryness under a stream of N2 and reconstituted in radioimmunoassay (RIA) buffer.
# as §2
inhibition at 10 µM (5-lipoxygenase) [%],% Inhibition (LTD4-induced bronchospasm) (LTD4) [%],Compound,% Inhibition of CO (as TxB2) (cyclooxygenase) [%],% Inhibition of CO (as PGE2) (cyclooxygenase) [%],% Inhibition at 50 mg/kg (peroral) (carrageenan paw edema) [%],% of Rats With Lesions [1] [%],Comments (protection) [1],% Inh LTB4 ([2]; 4 mg/kg p.o.) [%],"ED50 TxB2 ([2]; p.o., 1 hour prior to anti-BSA, 5 min) [mg/kg]","Oral ED50 (95% C.L.) (carrageenan paw edema; oral, 95% C.L. in parentheses, 180 min)",% Inh Cellular Influx (pleural inflammation; 8 mg/kg p.o.) [%],ED30 Fluid Exudation (pleural inflammation; p.o.) [mg/kg]
100,75,"CC(C(=O)O)c1ccc2cc(OCc3ccc4ccccc4n3)ccc2c1 (stereo not drawn) [Example 1, α-Methyl-6-(2-quinolinylmethoxy)-2-naphthaleneacetic acid]",28,-37,42,–,–,–,–,–,–,–
84,-76,"CC(C(=O)O)c1ccc2cc(OCc3ccccc3)ccc2c1 (stereo not drawn) [Example 2, α-Methyl-6-(phenylmethoxy)-2-naphthaleneacetic acid]",6,-26,24,–,–,–,–,–,–,–
24,80,"CC(C(=O)O)c1ccc2cc(OCc3nc4ccccc4n3C)ccc2c1 (stereo not drawn) [Example 3, α-Methyl-6-[(1-methyl-1H-benzimidazol-2-yl)-methoxy]-2-naphthaleneacetic acid]",15,-29,32,–,–,–,–,–,–,–
82,52,"CC(C(=O)O)c1ccc2cc(OCc3ccccn3)ccc2c1 (stereo not drawn) [Example 4, α-Methyl-6-(2-pyridinylmethoxy)-2-naphthaleneacetic acid]",12,18,30,–,–,–,–,–,–,–
81,–,"CCCCCCOc1ccc2cc(C(C)C(=O)O)ccc2c1 (stereo not drawn) [Example 10, α-Methyl-6-(hexyloxy)-2-naphthaleneacetic acid]",–,-5,–,37.5,protection,–,–,–,–,–
28,–,"CCCCOc1ccc2cc(C(C)C(=O)O)ccc2c1 (stereo not drawn) [Example 11, α-Methyl-6-(butyloxy)-2-naphthaleneacetic acid]",–,-3,–,50.0,moderate protection,–,–,–,–,–
–,–,COc1ccc2c(c1)c(CC(=O)O)c(C)n2C(=O)c1ccc(Cl)cc1 [Indomethacin],–,–,–,–,–,12,0.16,"3.7 (0.6, 23.8) mg/kg",19,2.5
